From patent US9862679B2, “Potent and selective inhibitors of monoamine transporters; method of making; and use thereof” (priority 2013, dated 2018)
Values joined by “and” are separate entries in the source; they are usually repeats but may differ in a detail not shown here. Identical values can stand only once. Like-named read-outs stand apart in the source and are kept apart here.

What was measured:
Sigma 2 = Sigma 2 (Homo sapiens (Human), UniProt Q5BJF2); assay: Sigma 2 binding affinity (Table 5)
Sequence of Sigma 2 (Q5BJF2 whole entry): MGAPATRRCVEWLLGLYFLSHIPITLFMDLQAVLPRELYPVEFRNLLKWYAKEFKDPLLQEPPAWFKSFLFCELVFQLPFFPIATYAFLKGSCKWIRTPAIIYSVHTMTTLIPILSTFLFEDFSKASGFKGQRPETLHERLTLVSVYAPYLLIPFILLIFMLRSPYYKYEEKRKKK

[1] = biological target: norepinephrine transporter (NET) (Rattus norvegicus, UniProt Q63380); details: rat brain membranes
Sequence of norepinephrine transporter (NET) (Q63380 1-617): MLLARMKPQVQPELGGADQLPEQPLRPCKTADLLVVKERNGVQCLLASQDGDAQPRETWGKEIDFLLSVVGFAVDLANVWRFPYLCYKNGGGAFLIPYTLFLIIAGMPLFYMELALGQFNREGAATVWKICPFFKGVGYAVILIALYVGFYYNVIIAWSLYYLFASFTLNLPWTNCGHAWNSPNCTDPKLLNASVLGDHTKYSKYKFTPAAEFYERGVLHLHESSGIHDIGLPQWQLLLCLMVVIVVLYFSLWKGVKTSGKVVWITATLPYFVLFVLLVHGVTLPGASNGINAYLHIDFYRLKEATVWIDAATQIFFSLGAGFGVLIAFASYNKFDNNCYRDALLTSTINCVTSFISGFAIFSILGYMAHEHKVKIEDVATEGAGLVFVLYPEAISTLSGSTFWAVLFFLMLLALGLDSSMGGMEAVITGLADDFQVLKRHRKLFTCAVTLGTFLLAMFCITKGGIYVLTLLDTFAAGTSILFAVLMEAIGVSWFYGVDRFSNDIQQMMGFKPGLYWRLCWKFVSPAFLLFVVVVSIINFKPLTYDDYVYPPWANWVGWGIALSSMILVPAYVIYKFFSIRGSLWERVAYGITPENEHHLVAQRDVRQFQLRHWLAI
Protocol: Binding affinities of all compounds were evaluated at the DAT, SERT, and NET in rat brain membranes using previously described methods:
Norepinephrine Transporter Binding Assay. Brains from male Sprague-Dawley rats weighing 200-225 g (Taconic Labs, Germantown, N.Y.) were removed, frontal cortex dissected and rapidly frozen. Membranes were prepared by homogenizing tissues in 20 volumes (w/v) of 50 mM Tris containing 120 mM NaCl and 5 mM KCl, (pH 7.4 at 25° C.), using a Brinkman Polytron and centrifuged at 50,000×g for 10 min at 4° C. The resulting pellet was resuspended in buffer, recentrifuged and resuspended in buffer to a concentration of 80 mg/mL. Ligand binding experiments were conducted in assay tubes containing 0.5 mL buffer for 60 min at 0-4° C. […] Nonspecific binding was determined using 1 mM desipramine. Incubations were terminated by rapid filtration through Whatman GF/B filters, presoaked in 0.05% polyethylenimine, using a Brandel R48 filtering manifold (Brandel Instruments Gaithersburg, Md.). The filters were washed twice with 3 mL cold buffer and transferred to scintillation vials. Beckman Ready Value (3.0 mL) was added and the vials were counted using a Beckman 6000 liquid scintillation counter (Beckman Coulter Instruments, Fullerton, Calif.). […] All compounds were tested as racemic mixtures.

Sigma 1 = Sigma 1 (Homo sapiens (Human), UniProt Q99720); assay: Sigma 1 binding affinity (Table 5)
Sequence of Sigma 1 (Q99720 whole entry): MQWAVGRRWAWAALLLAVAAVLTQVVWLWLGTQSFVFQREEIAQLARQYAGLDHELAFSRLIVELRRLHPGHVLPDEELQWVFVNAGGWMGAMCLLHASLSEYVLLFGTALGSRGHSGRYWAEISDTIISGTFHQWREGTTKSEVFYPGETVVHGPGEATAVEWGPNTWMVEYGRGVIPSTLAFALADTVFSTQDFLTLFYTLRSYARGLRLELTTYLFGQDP

[2] = biological target: dopamine transporter (DAT) (Rattus norvegicus (Rat), UniProt P23977); assay: Dopamine Transporter Binding Assay ([3H]WIN 35428, rat striatal membranes)
Sequence of dopamine transporter (DAT) (P23977 whole entry): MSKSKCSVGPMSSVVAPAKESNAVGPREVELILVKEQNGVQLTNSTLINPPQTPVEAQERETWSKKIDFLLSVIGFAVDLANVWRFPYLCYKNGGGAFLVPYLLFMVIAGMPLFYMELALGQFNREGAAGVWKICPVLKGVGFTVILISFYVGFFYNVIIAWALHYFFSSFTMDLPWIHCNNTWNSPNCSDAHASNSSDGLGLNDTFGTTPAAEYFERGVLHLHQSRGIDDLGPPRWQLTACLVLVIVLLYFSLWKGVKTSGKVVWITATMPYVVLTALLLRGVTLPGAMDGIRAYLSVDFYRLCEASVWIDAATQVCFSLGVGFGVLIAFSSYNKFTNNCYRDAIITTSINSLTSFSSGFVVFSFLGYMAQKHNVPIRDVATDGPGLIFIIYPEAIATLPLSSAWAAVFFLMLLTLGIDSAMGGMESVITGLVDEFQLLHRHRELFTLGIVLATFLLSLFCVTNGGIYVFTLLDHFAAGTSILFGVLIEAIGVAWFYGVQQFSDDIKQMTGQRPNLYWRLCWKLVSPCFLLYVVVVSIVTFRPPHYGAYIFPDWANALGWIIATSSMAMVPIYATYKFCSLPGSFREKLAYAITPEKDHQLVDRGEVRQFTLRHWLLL

[3] = biological target: T1, serotonin transporter (SERT) (Rattus norvegicus (Rat), UniProt P31652); details: for Ki: rat brain membranes
T1 sequence (P31652 whole entry): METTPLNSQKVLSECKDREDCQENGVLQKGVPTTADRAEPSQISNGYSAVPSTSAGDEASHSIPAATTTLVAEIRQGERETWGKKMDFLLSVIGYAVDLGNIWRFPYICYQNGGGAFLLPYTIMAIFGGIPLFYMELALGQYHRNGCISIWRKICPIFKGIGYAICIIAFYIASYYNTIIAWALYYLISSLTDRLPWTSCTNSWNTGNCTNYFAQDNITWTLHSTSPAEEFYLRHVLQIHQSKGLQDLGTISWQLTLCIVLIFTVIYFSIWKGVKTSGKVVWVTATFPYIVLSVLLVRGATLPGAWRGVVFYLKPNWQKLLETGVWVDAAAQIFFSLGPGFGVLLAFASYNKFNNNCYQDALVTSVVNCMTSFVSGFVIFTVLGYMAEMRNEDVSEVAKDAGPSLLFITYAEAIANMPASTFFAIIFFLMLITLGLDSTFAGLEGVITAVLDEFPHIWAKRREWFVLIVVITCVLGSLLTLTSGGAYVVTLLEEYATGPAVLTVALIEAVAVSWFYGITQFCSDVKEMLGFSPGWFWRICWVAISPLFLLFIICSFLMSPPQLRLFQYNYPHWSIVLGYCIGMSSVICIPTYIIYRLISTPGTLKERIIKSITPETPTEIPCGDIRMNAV
Protocol: (§1) Brains from male Sprague-Dawley rats weighing 200-225 g (Taconic Labs, Germantown, N.Y.) were removed, midbrain dissected and rapidly frozen. […] Nonspecific binding was determined using 10 mM fluoxetine. […] The filters were washed twice with 3 mL cold buffer and transferred to scintillation vials. Beckman Ready Value (3.0 mL) was added and the vials were counted the next day using a Beckman 6000 liquid scintillation counter (Beckman Coulter Instruments, Fullerton, Calif.). […] Data were analyzed with GraphPad Prism software (San Diego, Calif.).

[4] = biological target: T1, serotonin transporter (SERT); assay: biochemical
Protocol: as §1

[5] = Table 5 piperazinyl derivatives, read-out: Sigma 2 Ki ± SEM
[6] = read-out: NET Ki ± SEM, Table 5 piperazinyl derivatives
[7] = Table 5 piperazinyl derivatives, read-out: Sigma 1 Ki ± SEM
[8] = rat brain membranes, Table 5 piperazinyl derivatives, read-out: DAT Ki ± SEM
[9] = read-out: SERT Ki ± SEM, Table 5 piperazinyl derivatives
[10] = read-out: Ki (nM) ± S.E.M. SERT, Table 2 thioethanamines and sulfinylethanamines
[11] = read-out: NET Ki, Table 5, bound in M

Compound OC(Cc1ccccc1)CN1CCN(CCSC(c2ccccc2)c2ccccc2)CC1 (racemic) [Compound 9g, 1-(4-(2-(Benzhydrylthio)ethyl)piperazin-1-yl)-3-phenylpropan-2-ol] has a Ki (Sigma 2; [5]) of 31.8 ± 3.63 nM, a Ki [1, 6] of 1430 ± 118 nM and a Ki (Sigma 1; [7]) of 30 ± 3.81 nM. The Ki [2, 8] was 2.54 ± 0.23 nM.
With Fc1ccc(C(SCCN2CCN(CCCc3ccccc3)CC2)c2ccc(F)cc2)cc1 [Compound 7b, 1-(2-((Bis(4-fluorophenyl)methyl)thio)ethyl)-4-(3-phenylpropyl)piperazine] the Ki [3, 9] was 285 nM, the Ki (Sigma 2) was 28.5 ± 2.14 nM and the Ki [1, 6] was 1890 ± 116 nM. The Ki (Sigma 1) was 59.5 ± 5.04 nM and the Ki [2, 8] was 4.5 ± 0.34 nM.
NCCSC(c1ccc(Cl)cc1)c1ccc(Cl)cc1 [Compound 4b, 2-((bis(4-chlorophenyl)methyl)thio)ethan-1-amine] was tested, and the Ki [3, 10] was 30 nM and 29.9 nM and the Ki [4] was < 30 nM.
Work on CC(O)CN1CCN(CCSC(c2ccccc2)c2ccccc2)CC1 (racemic) [Compound 9a, 1-(4-(2-(Benzhydrylthio)ethyl)piperazin-1-yl)propan-2-ol] yielded a Ki [3, 9] of 26700 ± 2630 nM, a Ki (Sigma 2) of 92.6 ± 13.5 nM and a Ki [1, 6] of 44500 ± 2400 nM. For the same compound, the Ki (Sigma 1) was 0.94 ± 0.07 nM and the Ki [2, 8] was 49.6 ± 4.31 nM.
With [O-][S+](CCN1CCN(CCCc2ccccc2)CC1)C(c1ccccc1)c1ccccc1 (stereo not shown) [Compound 8a, 1-(2-(Benzhydrylsulfinyl)ethyl)-4-(3-phenylpropyl)piperazine] the Ki [3, 9] was 7220 ± 944 nM, the Ki (Sigma 2) was 20.5 ± 0.43 nM and the Ki [1, 6] was 5540 ± 808 nM. The Ki (Sigma 1) was 116 ± 1.24 nM and the Ki ([2]; read-out: DAT Ki ± SEM) was 3.17 ± 0.11 nM.
In the case of NC(=O)C[S+]([O-])C(c1cccc(Cl)c1)c1cccc(Cl)c1 (stereo not shown) [Compound 3d, 2-((Bis(3-chlorophenyl)methyl)sulfinyl)acetamide], the Ki ([1]; read-out: Ki (nM) ± S.E.M. NET, Table 1 thioacetamides and sulfinylacetamides) is reported as > 100000 nM and the Ki [4] is reported as > 100000 nM.
In the case of CC(O)CN1CCN(CC[S+]([O-])C(c2ccc(F)cc2)c2ccc(F)cc2)CC1 (racemic) [Compound 10d, 1-(4-(2-((Bis(4-fluorophenyl)methyl)sulfinyl)ethyl)piperazin-1-yl)propan-2-ol], the Ki [3, 9] is reported as 50300 ± 5760 nM, the Ki (Sigma 2; [5]) is reported as 1800 ± 264 nM and the Ki [1, 11] is reported as > 100000 nM. For the same compound, the Ki (Sigma 1; [7]) was 1010 ± 134 nM.
In the case of NCCSC(c1ccc(Br)cc1)c1ccc(Br)cc1 [Compound 4c, 2-((bis(4-bromophenyl)methyl)thio)ethan-1-amine], the “increase in SERT affinity, halogen-substituted v. unsubstituted analogue” value ([3]; 2i v. 2g (Table 1), 4c v. 4a (Table 2)) is reported as 9 fold, the Ki [3, 10] is reported as 26 nM and 26.3 nM and the Ki [4] is reported as < 30 nM. The “improvement in DAT affinity, halogen-substituted v. unsubstituted analogue” value [2] was 3 fold and the Ki ([2]; read-out: Ki (nM) ± S.E.M. DAT) was 488 ± 52.2 nM.
For CC(O)CN1CCN(CC[S+]([O-])C(c2ccccc2)c2ccccc2)CC1 (racemic) [Compound 10a, 1-(4-(2-(Benzhydrylsulfinyl)ethyl)piperazin-1-yl)propan-2-ol], the Ki ([3]; read-out: SERT Ki, Table 5, bound in M) was > 100000 nM, the Ki (Sigma 2; [5]) was 3930 ± 208 nM and the Ki [1, 11] was > 100000 nM. The Ki (Sigma 1; [7]) was 861 ± 109 nM and the Ki ([2]; read-out: DAT Ki ± SEM) was 636 ± 14.7 nM.
Compound c1ccc(CCCN2CCN(CCSC(c3ccccc3)c3ccccc3)CC2)cc1 [Compound 7a, 1-(2-(Benzhydrylthio)ethyl)-4-(3-phenylpropyl)piperazine] has a Ki [3, 9] of 1050 ± 152 nM, a Ki (Sigma 2) of 16.8 ± 2.15 nM and a Ki [1, 6] of 988 nM. For the same compound, the Ki (Sigma 1) was 19.9 ± 2.59 nM and the Ki [2, 8] was 3.58 ± 0.16 nM.
[O-][S+](CCN1CCN(CCCc2ccccc2)CC1)C(c1ccc(F)cc1)c1ccc(F)cc1 (stereo not shown) [Compound 8b, 1-(2-((Bis(4-fluorophenyl)methyl)sulfinyl)ethyl)-4-(3-phenylpropyl)piperazine] was tested, and the Ki (Sigma 2; [5]) was 25.9 ± 1.11 nM, the Ki [1, 6] was 4280 ± 343 nM and the Ki (Sigma 1; [7]) was 42.4 ± 5.1 nM. For the same compound, the Ki ([2]; read-out: DAT Ki ± SEM) was 2.92 ± 0.38 nM.
[O-][S+](CCN1CCN(CC(O)Cc2ccccc2)CC1)C(c1ccccc1)c1ccccc1 (racemic) [Compound 10g, 1-(4-(2-(Benzhydrylsulfinyl)ethyl)piperazin-1-yl)-3-phenylpropan-2-ol] showed a Ki [3, 9] of 21700 ± 2020 nM, a Ki (Sigma 2; [5]) of 316 ± 25.2 nM and a Ki [1, 6] of 25300 ± 2040 nM. For the same compound, the Ki (Sigma 1; [7]) was 983 ± 103 nM and the Ki [2, 8] was 3.43 ± 0.5 nM.
OC(Cc1ccccc1)CN1CCN(CCSC(c2ccc(F)cc2)c2ccc(F)cc2)CC1 (racemic) [Compound 9j, 1-(4-(2-((Bis(4-fluorophenyl)methyl)thio)ethyl)piperazin-1-yl)-3-phenylpropan-2-ol] was tested, and the Ki [3, 9] was 213 nM, the Ki (Sigma 2) was 38.6 ± 0.94 nM and the Ki [1, 6] was 1950 ± 227 nM. For the same compound, the Ki (Sigma 1) was 95.4 ± 13.4 nM.
